Measured values taken from patent publication US20230167093A1, “COMPOUNDS AND METHODS FOR MODULATING SPLICING” (REMIX THERAPEUTICS INC., priority 2020, published 2023).
pIC50: −log10 of the molar value.

Legend:
Format in all cases: cell-based
HTT AJ mRNA = experiment: RT-qPCR splicing assay, HTT alternative junction (AJ) mRNA increase; conditions: A673 or K562 cells, 24 hours compound treatment, top dose 10 uM; concentration having 50% response in AJ increase
Procedure: (§1) Compounds described herein were used to modulate RNA transcript abundance in cells. The expression of a target mRNA was measured by detecting the formation of an exon-exon junction in the canonical transcript (CJ). A compound mediated exon-inclusion event was detected by observing an increase in formation of a new junction with an alternative exon (AJ). Real-time qPCR assays were used to detect these splicing switches and interrogate the potency of various compounds towards different target genes. A high-throughput real time quantitative PCR (RT-qPCR) assay was developed to measure these two isoforms of the mRNA (CJ and AJ) for an exemplary gene, HTT, together with a control housekeeping gene, GAPDH or GUSB or PPIA, used for normalization. Briefly, the A673 or K562 cell line was treated with various compounds described herein (e.g., compounds of Formula (I) or (II)). After treatment, the levels of the HTT mRNA targets were determined from each sample of cell lysate by cDNA synthesis followed by qPCR.
(§2) The A673 cell line was cultured in DMEM with 10% FBS. Cells were diluted with full growth media and plated in a 96-well plate (15,000 cells in 100 ul media per well). The plate was incubated at 37° C. with 5% CO2 for 24 hours to allow cells to adhere. An 11-point 3-fold serial dilution of the compounds was made in DMSO then diluted in media in an intermediate plate. Compounds were transferred from the intermediate plate to the cell plate with the top dose at a final concentration of 10 uM in the well. Final DMSO concentration was kept at or below 0.25%. The cell plate was returned to the incubator at 37° C. with 5% CO2 for an additional 24 hours.
(§3) The K562 cell line was cultured in IMDM with 10% FBS. For K562, cells were diluted with full growth media and plated in either a 96-well plate (50,000 cells in 50 uL media per well) or a 384-well plate (8,000-40,000 cells in 45 uL media per well). An 11-point 3-fold serial dilution of the compounds were made in DMSO then diluted in media in an intermediate plate. Compound was transferred from the intermediate plate to the cell plate with the top dose at a final concentration of 10 uM in the well. Final DMSO concentration was kept at or below 0.25%. Final volume was 100 uL for 96-well plate and 50 uL for 384-well plate. The cell plate was then placed in an incubator at 37° C. with 5% CO2 for 24 hours.
(§4) The cells were then gently washed with 50 uL-100 uL cold PBS before proceeding to addition of lysis buffer. 30 uL-50 uL of room temperature lysis buffer with DNAse I (and optionally RNAsin) was added to each well. Cells were shaken/mixed thoroughly at room temperature for 5-10 minutes for lysis to take place and then 3 uL-5 uL of room temperature stop solution was added and wells were shaken/mixed again. After 2-5 minutes, the cell lysate plate was transferred to ice for RT-qPCR reaction setup. The lysates could also be frozen at −80° C. for later use.
(§5) In some cases, a direct lysis buffer was used. An appropriate volume of 3× lysis buffer (10 mM Tris, 150 mM NaCl, 1.5%-2.5% Igepal and 0.1-1 U/uL RNAsin, pH 7.4) was directly added to either K562 or A673 cells in media and mixed by pipetting 3 times. The plates were then incubated at room temperature with shaking/rocking for 20-50 minutes to allow for lysis to take place. After this time, the cell lysate plate was transferred to ice to set up for the RT-qPCR reactions. The lysates could also be frozen at −80° C. for later use.
(§6) To set up 10 uL RT-qPCR reactions, cell lysates were transferred to 384-well qPCR plates containing the master mix according to the table below. The plates were sealed, gently vortexed, and spun down before the run. The volumes were adjusted accordingly in some instances where the reaction was carried in 20 uL. The table below summarizes the components of the RT-qPCR reactions:
(§7) The RT-qPCR reaction was performed using a QuantStudio (ThermoFisher) under the following fast cycling conditions. […]

HTT CJ mRNA [1] = experiment: RT-qPCR splicing assay, HTT canonical junction (CJ) mRNA decrease; conditions: A673 or K562 cells, 24 hours compound treatment, top dose 10 uM; concentration having 50% response in CJ decrease
Procedure: as §1, §2, §3, §4, §5, §6, §7

HTT CJ mRNA [2] = experiment: Gene panel canonical junction qPCR assay, HTT; conditions: protocol as above, concentration having 50% response in CJ decrease, read-out: HTT IC50 (decrease in CJ mRNA levels)
Procedure: as §1, §2, §3, §4, §5, §6, §7

SMN2 CJ mRNA = experiment: Gene panel canonical junction qPCR assay, SMN2; conditions: protocol as above, concentration having 50% response in CJ decrease, read-out: SMN2 IC50 (decrease in CJ mRNA levels)
Procedure: as §1, with “After treatment, the levels of the HTT mRNA targets were determined from each sample of cell lysate by cDNA synthesis followed by qPCR.” left out
as §2, §3, §4, §5, §6
The RT-qPCR reaction was performed using a QuantStudio (ThermoFisher) under the following fast cycling conditions. All samples and standards were analyzed at least in duplicate. […]

Target C CJ mRNA = experiment: Gene panel canonical junction qPCR assay, Target C; conditions: protocol as above, concentration having 50% response in CJ decrease, read-out: Target C IC50 (decrease in CJ mRNA levels)
Procedure: as §1, §2, §3, §4, §5, §6, §7

| Structure (SMILES) | AC50 (HTT AJ mRNA) [µM] | AC50 (HTT CJ mRNA [1]) [µM] | pIC50 (HTT CJ mRNA [2]) | pIC50 (SMN2 CJ mRNA) | pIC50 (Target C CJ mRNA) |
| --- | --- | --- | --- | --- | --- |
| Cn1cc2cc(-n3cnc4ccc(C5=CCNCC5)cc4c3=O)ccc2n1 [Compound 151, 3-(2-methyl-2H-indazol-5-yl)-6-(1,2,3,6-tetrahydropyridin-4-yl)quinazolin-4(3H)-one] | > 10 | > 10 | < 5.00 | < 5.00 |  |
| CN1CCN(c2ccc3ncn(-c4ccc5nn(C)cc5c4)c(=O)c3c2)CC1 [Compound 154, 3-(2-methyl-2H-indazol-5-yl)-6-(4-methylpiperazin-1-yl)quinazolin-4(3H)-one] | > 10 | > 10 | < 5.00 | < 5.00 |  |
| Cn1cc2cc(-n3cnc4ccc(N5CCNCC5)cc4c3=O)ccc2n1 [Compound 155, 3-(2-methyl-2H-indazol-5-yl)-6-(piperazin-1-yl)quinazolin-4(3H)-one] | > 10 | > 10 | < 5.00 | < 5.00 |  |
| CN1[C@H]2CC[C@@H]1C=C(c1ccc3ncn(-c4ccc5nn(C)cc5c4)c(=O)c3c1)C2 [Compound 168, 3-(2-methyl-2H-indazol-5-yl)-6-((1R,5S)-8-methyl-8-azabicyclo[3.2.1]oct-2-en-3-yl)quinazolin-4(3H)-one] | > 10 | > 10 | < 5.00 | < 5.00 | < 5.00 |
| Cc1cc(-c2ccc3ncn(C4CCNCC4)c(=O)c3c2)cc2cn(C)nc12 [Compound 169, 6-(2,7-dimethyl-2H-indazol-5-yl)-3-(piperidin-4-yl)quinazolin-4(3H)-one] | > 10 | > 10 | < 5.00 | < 5.00 | < 5.00 |
| Cc1cc(-c2ccc3ncn(C4CCN(C)CC4)c(=O)c3c2)cc2cn(C)nc12 [Compound 170, 6-(2,7-dimethyl-2H-indazol-5-yl)-3-(1-methylpiperidin-4-yl)quinazolin-4(3H)-one] | > 10 | > 10 | < 5.00 | < 5.00 | < 5.00 |
| CN1CCC(Nc2ccc3ncn(-c4ccc5nn(C)cc5c4)c(=O)c3c2)CC1 [Compound 171, 3-(2-methyl-2H-indazol-5-yl)-6-((1-methylpiperidin-4-yl)amino)quinazolin-4(3H)-one] | > 10 | > 10 | < 5.00 | < 5.00 | < 5.00 |
| CN1CCN(c2ccc3ncn(-c4cc(F)c5nn(C)cc5c4)c(=O)c3c2)CC1 [Compound 194, 3-(7-fluoro-2-methyl-2H-indazol-5-yl)-6-(4-methylpiperazin-1-yl)quinazolin-4(3H)-one] | 1 to 10 | 1 to 10 | 5.00 to 6.00 | 5.00 to 6.00 | 5.00 to 6.00 |
| Cc1cn2cc(-n3cnc4ccc(N5CCNCC5)cc4c3=O)cc(F)c2n1 [Compound 195, 3-(8-fluoro-2-methylimidazo[1,2-a]pyridin-6-yl)-6-(piperazin-1-yl)quinazolin-4(3H)-one] | > 10 | > 10 | < 5.00 | < 5.00 | < 5.00 |
| Cn1cc2cc(-n3cnc4ccc(N5CCNCC5)cc4c3=O)cc(F)c2n1 [Compound 196, 3-(7-fluoro-2-methyl-2H-indazol-5-yl)-6-(piperazin-1-yl)quinazolin-4(3H)-one] | > 10 | > 10 | < 5.00 | < 5.00 | < 5.00 |
| Cc1cn2cc(-n3cnc4ccc(N5CCN(C)CC5)cc4c3=O)cc(F)c2n1 [Compound 197, 3-(8-fluoro-2-methylimidazo[1,2-a]pyridin-6-yl)-6-(4-methylpiperazin-1-yl)quinazolin-4(3H)-one] | 1 to 10 | 1 to 10 | 5.00 to 6.00 | 5.00 to 6.00 | 5.00 to 6.00 |
| CN(c1ccc2ncn(-c3cc(F)c4nn(C)cc4c3)c(=O)c2c1)C1CCNCC1 [Compound 198, 3-(7-fluoro-2-methyl-2H-indazol-5-yl)-6-(methyl(piperidin-4-yl)amino)quinazolin-4(3H)-one] | > 10 | > 10 | < 5.00 | < 5.00 | < 5.00 |
| CN1CCC(N(C)c2ccc3ncn(-c4cc(F)c5nn(C)cc5c4)c(=O)c3c2)CC1 [Compound 199, 3-(7-fluoro-2-methyl-2H-indazol-5-yl)-6-(methyl(1-methylpiperidin-4-yl)amino)quinazolin-4(3H)-one] | > 10 | > 10 | < 5.00 | < 5.00 | < 5.00 |
| Cc1cn2cc(-n3cnc4ccc(N(C)C5CCNCC5)cc4c3=O)cc(F)c2n1 [Compound 200, 3-(8-fluoro-2-methylimidazo[1,2-a]pyridin-6-yl)-6-(methyl(piperidin-4-yl)amino)quinazolin-4(3H)-one] | > 10 | > 10 | < 5.00 | < 5.00 | < 5.00 |
| Cc1cn2nc(-n3cnc4ccc(N5CCNCC5)cc4c3=O)cc(C)c2n1 [Compound 201, 3-(2,8-dimethylimidazo[1,2-b]pyridazin-6-yl)-6-(piperazin-1-yl)quinazolin-4(3H)-one] | > 10 | > 10 | < 5.00 | < 5.00 | < 5.00 |
| Cc1cn2nc(-n3cnc4ccc(N5CCN(C)CC5)cc4c3=O)cc(C)c2n1 [Compound 202, 3-(2,8-dimethylimidazo[1,2-b]pyridazin-6-yl)-6-(4-methylpiperazin-1-yl)quinazolin-4(3H)-one] | 1 to 10 | 1 to 10 | 5.00 to 6.00 | 5.00 to 6.00 | 5.00 to 6.00 |
| Cc1cc(-c2ccc3c(=O)[nH]c(N4CCNCC4)nc3c2)cc2cn(C)nc12 [Compound 211, 7-(2,7-dimethyl-2H-indazol-5-yl)-2-(piperazin-1-yl)quinazolin-4(3H)-one] | > 10 | > 10 | < 5.00 | < 5.00 | < 5.00 |
| Cc1cc(-c2ccc3c(=O)[nH]c(N4CCN(C)CC4)nc3c2)cc2cn(C)nc12 [Compound 212, 7-(2,7-dimethyl-2H-indazol-5-yl)-2-(4-methylpiperazin-1-yl)quinazolin-4(3H)-one] | 1 to 10 | 1 to 10 | 5.00 to 6.00 | 5.00 to 6.00 | 5.00 to 6.00 |
